Data from article PMC8854719, “Phase 1A/1B dose-escalation and -expansion study to evaluate the safety, pharmacokinetics, food effects and antitumor activity of pamiparib in advanced solid tumours” (British Journal of Cancer, 2021).
Marks after values point to notes of the source that are not given here.

Test: Safety and tolerability: adverse events, dose-limiting toxicities, MTD, RP2D (Phase 1A/1B)
Assay type: in vivo
Method: This was an open-label, Phase 1, dose-escalation/dose-expansion study, conducted across six study centres in Australia. The dose-escalation phase evaluated twice-daily (BID) and once-daily (QD) dosing, and the dose-expansion phase evaluated the BID RP2D from the dose-escalation phase and food effects (Fig. 1). The food-effects cohort comprised two sequences: fast followed by fed (sequence 1) and fed followed by fast (sequence 2). […] The decision to proceed to the next dose cohort was determined by the Safety Monitoring Committee and followed a modified 3 + 3 escalation scheme. […] When ≥2 DLTs occurred in the first 23 days of a dose level, the next lower dose level was declared the MTD. Safety was monitored and DLTs were assessed in all dose cohorts. […] The food-effects cohort investigated the effects of food on the PK of pamiparib in patients with advanced solid tumours.
The QD dosing regimen was added as an amendment to the protocol with the purpose of exploring the feasibility of a more convenient regimen.
Safety and tolerability were assessed throughout the study by monitoring adverse events (AEs), serious AEs, clinical laboratory measurements and physical examinations. Adverse events were categorised according to their severity (National Cancer Institute Common Terminology Criteria for Adverse Events v4.03) and relationship to the study treatment.

## C[C@]12CCCN1CC1=NNC(=O)c3cc(F)cc4[nH]c2c1c34 [pamiparib]
20 mg BID (n = 3)
  Ascites, AE of any grade: 0 (0.0) n (%)
  Back pain, AE of any grade: 0 (0.0) n (%)
  Constipation, AE of any grade: 0 (0.0) n (%)
  Cough, AE of any grade: 0 (0.0) n (%)
  Decreased appetite, AE of any grade: 0 (0.0) n (%)
  Diarrhoea, AE of any grade: 2 (66.7) n (%)
  Dose-limiting toxicity: 0 (0.0) n (%)
  Dyspnoea, AE of any grade: 1 (33.3) n (%)
  Fatigue, AE of any grade: 3 (100.0) n (%)
  Headache, AE of any grade: 1 (33.3) n (%)
  Hypoalbuminemia, AE of any grade: 0 (0.0) n (%)
  Hypomagnesemia, AE of any grade: 1 (33.3) n (%)
  Hypophosphatemia, AE of any grade: 0 (0.0) n (%)
  Increased AST, AE of any grade: 0 (0.0) n (%)
  Muscle spasms, AE of any grade: 0 (0.0) n (%)
  Nausea, AE of any grade: 2 (66.7) n (%)
  Neutropenia, AE of any grade: 0 (0.0) n (%)
  Non-cardiac chest pain, AE of any grade: 0 (0.0) n (%)
  Pain in extremity, AE of any grade: 1 (33.3) n (%)
  Peripheral sensory neuropathy, AE of any grade: 1 (33.3) n (%)
  Pleural effusion, AE of any grade: 0 (0.0) n (%)
  Pyrexia, AE of any grade: 0 (0.0) n (%)
  Treatment-emergent AE: 3 (100.0) n (%)
  Treatment-emergent AE: Grade 3 or higher: 1 (33.3) n (%)
  Treatment-emergent AE: Leading to death: 0 (0.0) n (%)
  Treatment-emergent AE: Leading to dose interruption: 3 (100.0) n (%)
  Treatment-emergent AE: Leading to dose modification: 3 (100.0) n (%)
  Treatment-emergent AE: Leading to dose reduction: 1 (33.3) n (%)
  Treatment-emergent AE: Leading to treatment discontinuation: 0 (0.0) n (%)
  Treatment-emergent AE: Serious: 1 (33.3) n (%)
  Treatment-related AE: 3 (100.0) n (%)
  Treatment-related AE: Grade 3 or higher: 1 (33.3) n (%)
  Treatment-related AE: Leading to death: 0 (0.0) n (%)
  Treatment-related AE: Leading to dose interruption: 1 (33.3) n (%)
  Treatment-related AE: Leading to dose modification: 1 (33.3) n (%)
  Treatment-related AE: Leading to dose reduction: 1 (33.3) n (%)
  Treatment-related AE: Leading to treatment discontinuation: 0 (0.0) n (%)
  Treatment-related AE: Serious: 0 (0.0) n (%)
  Upper respiratory tract infection, AE of any grade: 0 (0.0) n (%)
  Urinary tract infection, AE of any grade: 1 (33.3) n (%)
  Vomiting, AE of any grade: 2 (66.7) n (%)
40 mg BID (n = 6)
  Abdominal pain, AE of any grade: 0 (0.0) n (%)
  Anaemia, AE of any grade: 2 (33.3) n (%)
  Ascites, AE of any grade: 1 (16.7) n (%)
  Back pain, AE of any grade: 2 (33.3) n (%)
  Constipation, AE of any grade: 1 (16.7) n (%)
  Cough, AE of any grade: 0 (0.0) n (%)
  Decreased appetite, AE of any grade: 0 (0.0) n (%)
  Diarrhoea, AE of any grade: 2 (33.3) n (%)
  Dose-limiting toxicity: 1 (16.7)^a n (%)
  Dyspnoea, AE of any grade: 0 (0.0) n (%)
  Fatigue, AE of any grade: 2 (33.3) n (%)
  Headache, AE of any grade: 2 (33.3) n (%)
  Hypoalbuminemia, AE of any grade: 0 (0.0) n (%)
  Hypomagnesemia, AE of any grade: 0 (0.0) n (%)
  Hypophosphatemia, AE of any grade: 1 (16.7) n (%)
  Increased AST, AE of any grade: 1 (16.7) n (%)
  Muscle spasms, AE of any grade: 0 (0.0) n (%)
  Nausea, AE of any grade: 5 (83.3) n (%)
  Neutropenia, AE of any grade: 2 (33.3) n (%)
  Non-cardiac chest pain, AE of any grade: 0 (0.0) n (%)
  Pain in extremity, AE of any grade: 0 (0.0) n (%)
  Peripheral sensory neuropathy, AE of any grade: 0 (0.0) n (%)
  Pleural effusion, AE of any grade: 0 (0.0) n (%)
  Pyrexia, AE of any grade: 0 (0.0) n (%)
  Treatment-emergent AE: 6 (100.0) n (%)
